Source: patent publication US11192859B2, “Quinoline compounds as modulators of RAGE activity and uses thereof” (NEW YORK UNIVERSITY, priority 2016, dated 2021)

Columns and labels:
ctRAGE = ctRAGE (Homo sapiens (Human), UniProt Q15109); assay: Kd determinations (Tables 1 and 2); assay type: binding; details: Table 2
Protocol: Binding affinities of small molecules for either CT-RAGE or FH1 are determined by performing fluorescence titrations to generate binding isotherms and standard SPR experiments.
A number of representative quinoline compounds of this invention are or can be tested for their inhibitory activity.

[1] = molecular target: binding of RAGE tail (ctRAGE) to DIAPH1 (Homo sapiens (Human), UniProt Q15109); assay: Primary screen (high-throughput): blocking of GFP RAGE tail binding to DIAPH1; details: 12.5 μM; Table 2
binding of RAGE tail (ctRAGE) to DIAPH1, sequence (Q15109 364-404): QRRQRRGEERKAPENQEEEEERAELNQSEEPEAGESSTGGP
Protocol: […] Compounds that reduced binding of RAGE tail (ctRAGE) by at least 50% were then selected and subjected to 4-point dose response (10 uM, 1 uM, 0.1 uM and 0.01 uM).
• Step 1. Add 50 μl anti-DIAPH1 (1:160 dilution in 0.1M NaHCO3 pH 9.6)/well. Incubate overnight at 4° C. Day 2 • Step 2. Use the plate washer to aspirate anti-DIAPH11 and wash plates 4× with PBS 100 μl per well per wash. • Step 3. Add 180 μl 3% BSA in 1×PBS. Incubate for 1.5 hrs at room temperature Step 4. Use the plate washer to aspirate the blocking solution and wash 5× with PBS 300 μl per well. • Step 5. Add 50 μl of DIAPH1 containing lysate (85 μg) and incubate at RT for 3 hours. • Step 6. Aspirate the lysate and wash the plate 5×(100 μl) on the plate washer. • Step 7. Add 25 μl PBS to the wells. • Step 8. Add 0.5 μL compound per well. • Step 9. Add 24.5 μL GFP RAGE tail (125 nM) into each well for 2 hrs at room temperature. • Step 10. Aspirate and wash 5× with PBS (100 μL) on the plate washer. • Step 11. Add 100 μl PBS in each well. • Step 12. Detection: Read on fluorescence plate reader excitation […] and 485 nm emission
Compounds that blocked the binding of RAGE tail to DIAPH1 by 50% or more were subjected to 4 point dose response: 10 μM, 1 μM, 0.1 μM and 0.01 μM.

ctRAGE, sequence (Q15109 23-404 limits assumed): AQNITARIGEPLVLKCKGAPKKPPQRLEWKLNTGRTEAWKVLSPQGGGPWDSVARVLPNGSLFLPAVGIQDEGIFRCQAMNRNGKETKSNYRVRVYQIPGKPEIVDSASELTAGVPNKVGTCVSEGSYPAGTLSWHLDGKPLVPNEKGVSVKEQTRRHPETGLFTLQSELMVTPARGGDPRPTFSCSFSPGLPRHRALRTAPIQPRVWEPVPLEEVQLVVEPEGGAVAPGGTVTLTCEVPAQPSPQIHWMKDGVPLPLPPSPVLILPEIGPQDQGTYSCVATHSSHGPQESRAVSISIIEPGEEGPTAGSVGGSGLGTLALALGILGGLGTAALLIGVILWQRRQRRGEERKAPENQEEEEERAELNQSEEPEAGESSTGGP

SMILES | Kd (ctRAGE) | inhibition at 12.5 µM [1]
CC(=O)Nc1ccc(-c2cc(C(=O)N3CCOCC3)c3cccc(Cl)c3n2)cc1 [Compound 101, N-(4-(8-Chloro-4-(morpholine-4-carbonyl)quinolin-2-yl)phenyl)acetamide] | 43 µM | 27%
CC(=O)Nc1ccc(-c2cc(C(=O)N3CCOCC3)c3cccc(Cl)c3n2)cn1 [Compound 102, N-(5-(8-Chloro-4-(morpholine-4-carbonyl)quinolin-2-yl)pyridin-2-yl)acetamide] | 29 µM | 37%
CC(=O)Nc1ccc(-c2cc(C(=O)N3CCOCC3)c3cccc(Cl)c3n2)nc1 [Compound 103, N-(6-(8-Chloro-4-(morpholine-4-carbonyl)quinolin-2-yl)pyridin-3-yl)acetamide] | 18 µM | 38%
CC(=O)Nc1ccc(-c2cc(C(=O)N3CCOCC3)c3cc(Cl)ccc3n2)cc1 [Compound 104, N-(4-(6-Chloro-4-(morpholine-4-carbonyl)quinolin-2-yl)phenyl)acetamide] | 60 µM | 37%
CC(=O)Nc1ccc(-c2cc(C(=O)N3CCOCC3)c3cc(Cl)ccc3n2)cn1 [Compound 105, N-(5-(6-Chloro-4-(morpholine-4-carbonyl)quinolin-2-yl)pyridin-2-yl)acetamide] | 45 µM | 32%
CC(=O)Nc1ccc(-c2cc(C(=O)N3CCOCC3)c3cc(Cl)ccc3n2)nc1 [Compound 106, N-(6-(6-Chloro-4-(morpholine-4-carbonyl)quinolin-2-yl)pyridin-3-yl)acetamide] | 34 µM | 35%
CC(=O)Nc1ccc(-c2cc(N3CCOCC3)c3ccccc3n2)cc1 [Compound 107, N-(4-(4-Morpholinoquinolin-2-yl)phenyl)acetamide] | 44 µM | 31%
CC(=O)Nc1ccc(-c2cc(CN3CCOCC3)c3ccccc3n2)cc1 [Compound 108, N-(4-(4-(Morpholinomethyl)quinolin-2-yl)phenyl)acetamide] | 11 µM | 44%
CC(=O)Nc1ccc(-c2cc(CN3CCOCC3)c3ccccc3n2)nc1 [Compound 109, N-(6-(4-(Morpholinomethyl)quinolin-2-yl)pyridin-3-yl)acetamide] | 1.9 µM | 20%
CC(=O)Nc1ccc(-c2cc(CN3CCOCC3)c3cccc(Cl)c3n2)cc1 [Compound 110, N-(4-(8-Chloro-4-(morpholinomethyl)quinolin-2-yl)phenyl)acetamide] |  | 20%
CC(=O)Nc1ccc(-c2cc(CN3CCOCC3)c3cccc(Cl)c3n2)nc1 [Compound 111, N-(6-(8-Chloro-4-(morpholinomethyl)quinolin-2-yl)pyridin-3-yl)acetamide] |  | 18%
CC(=O)Nc1ccc(-c2cc(C(C)N3CCOCC3)c3ccccc3n2)cc1 (stereo not drawn) [Compound 112, N-(4-(4-(1-Morpholinoethyl)quinolin-2-yl)phenyl)acetamide] |  | 27%
